# Laboratory results from patent publication US12678454B2, “Bicarbonate as a potentiator for antimicrobial agents” (priority 2017, dated 2026).
# Bridge positions count the residues as written; N and C are the ends. Square brackets hold non-standard residues; d marks the D form. Peptide text beside a SMILES is read from it. * marks the point of attachment. Ileψ(thiazoline)Cys = CC[C@H](C)[C@H](N)C1=N[C@H](C(=O)*)CS1; dOrn = NCCC[C@@H](N)C(=O)O
# Experiments:
# [1] = test system: S. aureus (Strain Newman); test: MIC determination (CLSI protocol) in MHB; type: cell-based, Staphylococcus aureus; settings: for MIC, S. aureus, MHB−: MHB without sodium bicarbonate
# Experimental: (§1) In the following experiments, bacterial cells were cultured in 96-well microtiter plates in cation-adjusted Mueller-Hinton Broth (MHB) for 18 h at 37° C. The main strains used in this study were E. coli (K-12 BW25113) (placed in stationary incubator) and S. aureus (Strain Newman) (incubated at 250 r.p.m). Knockout strains (ΔtolcC and ΔychM) were used from the Keio knockout collection (Baba, T. et al. Construction of Escherichia coli K-12 in-frame, single-gene knockout mutants: the Keio collection. Mol Syst Biol 2, 2006 0008, doi:10.1038/msb4100050 (2006)). For minimum concentration for inhibition (MIC) determination and checkerboard analyses, Clinical & Laboratory Standards Institute (CLSI) protocol was used. […] DiSC3 loading of S. aureus cells was performed as previously described (Farha, M. A., Verschoor, C. P., Bowdish, D. & Brown, E. D. Collapsing the proton motive force to identify synergistic combinations against Staphylococcus aureus. Chemistry & biology 20, 1168-1178, doi:10.1016/j.chembiol.2013.07.006 (2013)). CCCP concentration of 20 μM was used. pH adjustments were made by addition of HCl or NaOH. INT assay and ATP bioluminescence assays were performed as previously described (Farha, M. A., Verschoor, C. P., Bowdish, D. & Brown, E. D. Collapsing the proton motive force to identify synergistic combinations against Staphylococcus aureus. Chemistry & biology 20, 1168-1178, doi:10.1016/j.chembiol.2013.07.006 (2013)). For chemical-genomic studies, the Keio library was grown overnight in cation-adjusted MHB broth, in 384-well plates. From these, treatment plates (25 mM sodium bicarbonate, or a sterile water control) were inoculated and grown for 15 hours at 37° C., in a stationary incubator. Data was normalized according to Mangat et al (Mangat, C. S., Bharat, A., Gehrke, S. S. & Brown, E. D. Rank ordering plate data facilitates data visualization and normalization in high-throughput screening. J Biomol Screen 19, 1314-1320, doi:10.1177/1087057114534298 (2014)), with gene products and GO terms mined from EcoCyc. The GFP promoter library (Keseler, I. M. et al. EcoCyc: fusing model organism databases with systems biology. Nucleic Acids Res 41, D605-612, doi:10.1093/nar/gks1027 (2013)) was grown for 18 hours at ambient temperature with the same inoculation strategy as with the Keio collection. The analysis pipeline of Zaslaver et al (Zaslaver, A. et al. A comprehensive library of fluorescent transcriptional reporters for Escherichia coli. Nat Methods 3, 623-628, doi:10.1038/nmeth895 (2006)) was used to generate maps of promoter activity, from which lists of promoters with increased or decreased activity were compiled.
# E. coli (K-12 BW25113) = type: cell-based, Escherichia coli; parameters: MIC, E. coli, MHB− / MIC, E. coli, MHB+: unit not given here
# Experimental: as §1
SMILES,"Fold, S. aureus [1]","MIC, S. aureus, MHB− [1]","Fold, E. coli (E. coli (K-12 BW25113))","MIC, E. coli, MHB+ (E. coli (K-12 BW25113))"
CC1(C)S[C@@H]2[C@H](NC(=O)[C@H](N)c3ccc(O)cc3)C(=O)N2[C@H]1C(=O)O [Amoxicillin],−4 fold,0.25 mg/L,−2 fold,16
CC1(C)S[C@@H]2[C@H](NC(=O)[C@H](N)c3ccccc3)C(=O)N2[C@H]1C(=O)O [Ampicillin],−8 fold,1 mg/L,−2 fold,32
CN[C@@H]1[C@@H](O[C@H]2O[C@H](CO)[C@@H](N)[C@H](O)[C@H]2O)OC2C[C@@H](N)[C@@H](O[C@H]3[C@H](O)[C@@H](O)[C@H](N)C[C@@H]3N)OC2[C@@H]1O (some centres unmarked) [Apramycin],0.5 fold,16 mg/L,4 fold,8
CC[C@H](C)[C@H](N)C1=N[C@H](C(=O)N[C@@H](CC(C)C)C(=O)N[C@H](CCC(=O)O)C(=O)N[C@H](C(=O)N[C@H]2CCCCNC(=O)[C@H](CC(N)=O)NC(=O)[C@@H](CC(=O)O)NC(=O)[C@H](Cc3cnc[nH]3)NC(=O)[C@@H](Cc3ccccc3)NC(=O)[C@H]([C@@H](C)CC)NC(=O)[C@@H](CCCN)NC2=O)[C@@H](C)CC)CS1 [Bacitracin] ({Ileψ(thiazoline)Cys}-L[dE]IK[dOrn]I[dF]H[dD]N; lactam 4-C),−2 fold,32 mg/L,1 fold,>256
N[C@@H]1CCCCN(c2c(F)cc3c(=O)c(C(=O)O)cn(C4CC4)c3c2Cl)C1 [Besifloxacin],−2 fold,0.125 mg/L,8 fold,0.0313
CCN1CCN(C(=O)N[C@@H](C(=O)N[C@@H]2C(=O)N3C(C(=O)O)=C(CSc4nnnn4C)CS[C@H]23)c2ccc(O)cc2)C(=O)C1=O [Cefoperazone],−16 fold,0.25 mg/L,1 fold,0.125
CO/N=C(\C(=O)N[C@@H]1C(=O)N2C(C(=O)O)=C(CSc3nc(=O)c(=O)[nH]n3C)CS[C@H]12)c1csc(N)n1 [Ceftriaxone],−4 fold,4 mg/L,1 fold,0.625
O=C(N[C@H](CO)[C@H](O)c1ccc([N+](=O)[O-])cc1)C(Cl)Cl [Chloramphenicol],1 fold,8 mg/L,1 fold,8
Cc1onc(-c2ccccc2Cl)c1C(=O)N[C@@H]1C(=O)N2[C@@H]1SC(C)(C)[C@@H]2C(=O)O [Cloxacillin],−16 fold,0.031 mg/L,1 fold,256
CC[C@H]1OC(=O)[C@H](C)[C@@H](O[C@H]2C[C@@](C)(OC)[C@@H](O)[C@H](C)O2)[C@H](C)[C@@H](O[C@@H]2O[C@H](C)C[C@H](N(C)C)[C@H]2O)[C@](C)(O)C[C@@H](C)[C@@H]2N[C@@H](COCCOC)O[C@H]([C@H]2C)[C@]1(C)O [Dirithromycin],8 fold,4 mg/L,32 fold,4
C[C@H]1c2cccc(O)c2C(=O)C2=C(O)[C@]3(O)C(=O)C(C(N)=O)=C(O)[C@@H](N(C)C)[C@@H]3[C@@H](O)[C@@H]21 [Doxycycline],−16 fold,0.125 mg/L,−4 fold,4
CCn1cc(C(=O)O)c(=O)c2cc(F)c(N3CCNCC3)nc21 [Enoxacin],−2 fold,1 mg/L,2 fold,0.125
CC[C@H]1OC(=O)[C@H](C)[C@@H](O[C@H]2C[C@@](C)(OC)[C@@H](O)[C@H](C)O2)[C@H](C)[C@@H](O[C@@H]2O[C@H](C)C[C@H](N(C)C)[C@H]2O)[C@](C)(O)C[C@@H](C)C(=O)[C@H](C)[C@@H](O)[C@]1(C)O [Erythromycin],,32 mg/L,,32
C[C@@H]1O[C@@H]1P(=O)(O)O [Fosfomycin],−4 fold,16 mg/L,−4 fold,16
O=CN(O)CCCP(=O)(O)O [Fosmidomycin],1 fold,> 64 mg/L,−2 fold,32
NC[C@H]1O[C@H](O[C@H]2[C@H](O)[C@@H](O[C@H]3O[C@H](CO)[C@@H](O)[C@H](N)[C@H]3O)[C@H](N)C[C@@H]2N)[C@H](O)[C@@H](O)[C@@H]1O [Kanamycin],2 fold,8 mg/L,4 fold,1
C[C@H]1COc2c(N3CCN(C)CC3)c(F)cc3c(=O)c(C(=O)O)cn1c23 [Levofloxacin],−2 fold,0.5 mg/L,1 fold,0.0313
CC(=O)NC[C@H]1CN(c2ccc(N3CCOCC3)c(F)c2)C(=O)O1 [Linezolid],1 fold,0.625 mg/L,1 fold,256
COc1c(N2C[C@@H]3CCCN[C@@H]3C2)c(F)cc2c(=O)c(C(=O)O)cn(C3CC3)c12 [Moxifloxacin],,0.125 mg/L,,0.0156
CCn1cc(C(=O)O)c(=O)c2ccc(C)nc21 [Nalidixic acid],−4 fold,> 8 mg/L,−4 fold,8
CCn1cc(C(=O)O)c(=O)c2cc(F)c(N3CCNCC3)cc21 [Norfloxacin],−2 fold,0.5 mg/L,2 fold,0.0625
CO[C@@H]1[C@@H](OC(N)=O)[C@@H](O)[C@H](Oc2ccc3c(O)c(NC(=O)c4ccc(O)c(CC=C(C)C)c4)c(=O)oc3c2C)OC1(C)C [Novobiocin],−16 fold,0.031 mg/L,−8 fold,>256
Cc1onc(-c2ccccc2)c1C(=O)N[C@@H]1C(=O)N2[C@@H]1SC(C)(C)[C@@H]2C(=O)O [Oxacillin],−16 fold,0.0625 mg/L,−2 fold,>256
NC[C@@H]1O[C@H](O[C@H]2[C@@H](O)[C@H](O[C@@H]3[C@@H](O)[C@H](N)C[C@H](N)[C@H]3O[C@H]3O[C@H](CO)[C@@H](O)[C@H](O)[C@H]3N)O[C@@H]2CO)[C@H](N)[C@@H](O)[C@@H]1O [Paromomycin],1 fold,2 mg/L,2 fold,1
CCN1CCN(C(=O)N[C@@H](C(=O)N[C@@H]2C(=O)N3[C@@H]2SC(C)(C)[C@@H]3C(=O)O)c2ccccc2)C(=O)C1=O [Piperacillin],−4 fold,0.25 mg/L,2 fold,1
CO[C@H]1/C=C/O[C@@]2(C)Oc3c(C)c(O)c4c(O)c(c(/C=N/N5CCN(C)CC5)c(O)c4c3C2=O)NC(=O)/C(C)=C\C=C\[C@H](C)[C@H](O)[C@@H](C)[C@@H](O)[C@@H](C)[C@H](OC(C)=O)[C@@H]1C [Rifampicin],−4 fold,0.0078 mg/L,−2 fold,64
CN[C@@H]1[C@H](O)[C@H](NC)[C@H]2O[C@@]3(O)C(=O)C[C@@H](C)O[C@H]3O[C@@H]2[C@H]1O [Spectinomycin],8 fold,64 mg/L,4 fold,4
